The subject of test [1] is bilirubin oxidase (BOD), coated BOD 1 (Reference Example). How it is done:
(§1) The solution was homogeneously added to the above acryloylated BOD solution, and the resulting solution was allowed to react for 60 minutes.
(§2) The Michaelis constants (KM) and the reaction rate constants (kcat) of coated BOD 1, coated BOD 2, and free BOD 1 prepared above were measured under the conditions shown in Table 1 below. […] The amount of protein of each BOD sample was determined by bicinchoninic acid (BCA) colorimetric protein assay from a calibration curve of bovine serum albumin (BSA) used as a standard protein.

The subject of test [2] is bilirubin oxidase (BOD), coated BOD 2 (Reference Example). How it is done:
as §1, §2

Test [3] deals with bilirubin oxidase (BOD), free BOD 1 (not coated, stored at 4° C.). The settings on record: oxygen saturation. How it is done: As a control, BOD on which coating was not performed and which was stored at 4° C. for the same period of time as that is necessary for the process of preparing coated BOD 2 (hereinafter referred to as “free BOD 1”) was used.
as §2

For test [4], the system named is bilirubin oxidase (BOD), coated BOD 3 (Example 1, coated at 4° C.). How it is done: (§3) First, 40 mg of BOD and 1 mg of ethylenediaminetetraacetic acid (EDTA) used as a stabilizer were dissolved in 3.8 mL of a 100 mM boric acid solution (pH 9.3). Subsequently, 6.0 mg of N-acryloxysuccinimide was dissolved in 0.2 mL of DMSO, and the solution was then gradually added to the boric acid buffer. The resulting solution was allowed to react at 4° C. for 10 hours. Subsequently, the resulting acryloylated BOD in which acryloyl groups were introduced was purified using a Sephadex G25 column at 4° C.
(§4) Subsequently, at 4° C., a mixture prepared by mixing acrylamide and N,N′-methylenebisacrylamide in a molar ratio of 10:1 was dissolved in 0.5 mL of deionized water free of oxygen. The solution was homogeneously added to the above acryloylated BOD solution, and the resulting solution was allowed to react for 60 minutes. The reaction was further performed in the presence of nitrogen at 4° C. for 60 minutes. Finally, the coated BOD (hereinafter referred to as “coated BOD 3”) was purified using a Sephadex G75 column.
(§5) The Michaelis constants (KM) and the reaction rate constants (kcat) of coated BOD 3, coated BOD 4, free BOD 2, and free BOD 3 prepared above were measured under the conditions shown in Table 4. […] The amount of protein of each BOD sample was determined by BCA colorimetric protein assay from a calibration curve of BSA used as a standard protein.

The subject of test [5] is bilirubin oxidase (BOD), coated BOD 4 (Example 1, coated at 4° C.). How it is done: as §3, §4, §5
Test [6] has as its system bilirubin oxidase (BOD), free BOD 2 (not coated, stored at 25° C.). The settings on record: ABTS, pH 7.0, 25° C., oxygen saturation. How it is done: (§6) As controls, BOD on which coating was not performed and which was stored at 25° C. for the same period of time as that is necessary for the process of preparing coated BOD 4 (hereinafter referred to as “free BOD 2”), and BOD on which coating was not performed and which was stored at 4° C. for the same period of time as that is necessary for the process of preparing coated BOD 4 (hereinafter referred to as “free BOD 3”) were used.
as §5

Test [7] deals with bilirubin oxidase (BOD), free BOD 3 (not coated, stored at 4° C.). The settings on record: oxygen saturation. How it is done:
as §6, §5

On to `CCn1c(=NN=c2sc3cc(S(=O)(=O)O)ccc3n2CC)sc2cc(S(=O)(=O)O)ccc21.N.N` [ABTS, 2,2′-Azino-bis(3-ethylbenzothiazoline-6-sulfonic acid) diammonium salt], for which the turnover number (kcat) in test [1] (coated BOD 1, ABTS, pH 7.0, 25° C., oxygen saturation) amounted to 10.2 s⁻¹; in test [2] (coated BOD 2, ABTS, pH 7.0, 25° C., oxygen saturation), 1.92 s⁻¹; in test [3] (free BOD 1, ABTS, pH 7.0, 25° C.), 234 s⁻¹; in test [4] (coated BOD 3, ABTS, pH 7.0, 25° C., oxygen saturation), 52.5 s⁻¹; in test [5] (coated BOD 4, ABTS, pH 7.0, 25° C., oxygen saturation), 52.7 s⁻¹; in test [6] it was 158 s⁻¹. Besides, in test [7] (free BOD 3, ABTS, pH 7.0, 25° C.), the kcat amounted to 216 s⁻¹. The “Michaelis constant (KM) compared with free BOD 1” value in test [1] (coated BOD 1 vs free BOD 1) and in test [2] (coated BOD 2 vs free BOD 1) was “no significant difference” throughout. Moreover, the Km in test [1] (read-out: KM,ABTS, coated BOD 1, 2.05 nM, ABTS 0.05 to 10 mM, pH 7.0 sodium phosphate, 25° C., oxygen saturation, 730 nm) was determined as 383 µM; in test [2] (read-out: KM,ABTS, coated BOD 2, 19.7 nM, ABTS 0.05 to 10 mM, pH 7.0 sodium phosphate, 25° C., oxygen saturation, 730 nm), 405 µM; in test [3] (read-out: KM,ABTS, free BOD 1, 712 pM, ABTS 0.05 to 10 mM, pH 7.0 sodium phosphate, 25° C., 730 nm), 307 µM; in test [4] (read-out: KM,ABTS, coated BOD 3, 1.09 nM, ABTS 0.05 to 7 mM, pH 7.0 sodium phosphate, 25° C., oxygen saturation, 730 nm) it was 570 µM; in test [5] (read-out: KM,ABTS, coated BOD 4, 3.30 nM, ABTS 0.05 to 7 mM, pH 7.0 sodium phosphate, 25° C., oxygen saturation, 730 nm), 670 µM; in test [7] (read-out: KM,ABTS, free BOD 3, 0.629 nM, ABTS 0.05 to 7 mM, pH 7.0 sodium phosphate, 25° C., 730 nm), 358 µM. The “Michaelis constant (KM) compared with free BOD 2 and free BOD 3” value is given as “about twice” in test [4] (coated BOD 3 vs free BOD 2 and free BOD 3); “about twice” in test [5] (coated BOD 4 vs free BOD 2 and free BOD 3).

Values taken from patent US20090053582A1, “METHOD OF COATING BILIRUBIN OXIDASE” (SONY CORPORATION, priority 2007, published 2009).
